Results taken from patent US20130143872A1, “INJECTABLE FORMULATION OF A REVERSE TRANSCRIPTASE INHIBITOR FOR THE TREATMENT CANCER” (priority 2010, published 2013).
Values after ≈ are worked out from the molar mass of the structure shown.

How the values were obtained:
[1] = Recrystallisation of nevirapine from water-ethanol co-solvent systems: crystal form and crystal habit; type: physicochemical
[2] = cited from earlier work
[3] = EtOH:H2O 90:0 ml, water content 0 % v/v
[4] = EtOH:H2O 90:4.7 ml, water content 5 % v/v
[5] = EtOH:H2O 90:22.5 ml, water content 20 % v/v
[6] = EtOH:H2O 90:38.6 ml, water content 30 % v/v
[7] = EtOH:H2O 90:60 ml, water content 40 % v/v
[8] = EtOH:H2O 90:90 ml, water content 50 % v/v
[9] = EtOH:H2O 90:135 ml, water content 60 % v/v
[10] = EtOH:H2O 90:210 ml, water content 70 % v/v
[11] = EtOH:H2O 90:360 ml, water content 80 % v/v

Crystal Habit ([1]; EtOH:H2O 90:0 ml (so in the source), water content 10 % v/v)	Crystal Habit [1, 3]	Nevirapine Form Obtained [1, 3]	Crystal Habit [1, 4]	Nevirapine Form Obtained [1, 4]	Crystal Habit [1, 5]	Nevirapine Form Obtained [1, 5]	Crystal Habit [1, 6]	Nevirapine Form Obtained [1, 6]	Crystal Habit [1, 7]	Nevirapine Form Obtained [1, 7]	Crystal Habit [1, 8]	Nevirapine Form Obtained [1, 8]	Crystal Habit [1, 9]	Nevirapine Form Obtained [1, 9]	Crystal Habit [1, 10]	Nevirapine Form Obtained [1, 10]	Crystal Habit [1, 11]	Nevirapine Form Obtained [1, 11]	Compound	solubility in water [2]
Very small tabular	Tabular crystals	Hemi-Ethanolate	Smaller tabular	Hemi-Ethanolate	Disorganized	Hemi-Hydrate	Disorganized	Hemi-Hydrate	Columnar clusters	Hemi-Hydrate	Platy clusters	Hemi-Hydrate	Platy crystals	Hemi-Hydrate	Platy crystals	Hemi-Hydrate	Very small bladed	Anhydrous	Cc1ccnc2c1NC(=O)c1cccnc1N2C1CC1 [nevirapine]	
																			Nc1ncnc2c1ncn2CCOCP(=O)(O)O [Adefonir]	400 µg/mL (≈ 1460 µM)
